Tests used:
Assay in all cases: Test D pre-/postemergence plant response
Assay type in all cases: in vivo
[1] = system: bermudagrass (Cynodon dactylon)
In short: (§1)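 Scores (0 no effect, 100 complete control) reflect visual assessment against untreated plants after 14 to 21 days. Treatments were pre- and postemergence sprays in solvent with surfactant.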

[2] = system: Surinam grass (Brachiaria decumbens)
In short: as §1

kochia (Kochia scoparia) = system: kochia (Kochia scoparia)
In short: as §1

[3] = system: groundsel (common groundsel, Senecio vulgaris); details: Postemergence
In short: as §1

[4] = system: sowthistle (common sowthistle, Sonchus oleraceous)
In short: as §1

[5] = system: guineagrass (Panicum maximum)
In short: as §1

[6] = system: goosegrass (Eleusine indica)
In short: as §1

[7] = system: green foxtail (Setaria viridis)
In short: as §1

[8] = system: johnsongrass (Sorghum halepense)
In short: as §1

[9] = system: dallisgrass (Paspalum dilatatum)
In short: as §1

[10] = system: naked crabgrass (Digitaria nuda)
In short: as §1

[11] = system: barnyardgrass (Echinochloa crus-galli)
In short: as §1

[12] = system: dayflower (Virginia (VA) dayflower, Commelina virginica)
In short: as §1

[13] = system: itchgrass (Rottboellia cochinchinensis)
In short: as §1

[14] = system: mallow (common mallow, Malva sylvestris)
In short: as §1

[15] = Postemergence, 16 g ai/ha, scale 0 to 100
[16] = Postemergence, 31 g ai/ha, scale 0 to 100 (0 no effect, 100 complete control)
[17] = Postemergence, 125 g ai/ha, scale 0 to 100 (0 no effect, 100 complete control)
[18] = Postemergence, 62 g ai/ha, scale 0 to 100 (0 no effect, 100 complete control)
[19] = Preemergence, 16 g ai/ha, scale 0 to 100, 0 no effect, 100 complete control
[20] = Preemergence, 31 g ai/ha, scale 0 to 100 (0 no effect, 100 complete control)
[21] = Preemergence, 62 g ai/ha, scale 0 to 100
[22] = Preemergence, 125 g ai/ha, scale 0 to 100
[23] = Postemergence, 31 g ai/ha, scale 0 to 100

O=C1CCCC(O)=C1C(=O)c1cnc(-c2cccs2)n(-c2ccccc2)c1=O [Compound 66]
0: Plant response rating, Bermudagrass [1, 19] | Plant response rating, Bermudagrass [1, 20] | Plant response rating, Surinam Grass [2, 19] | Plant response rating, Kochia (kochia (Kochia scoparia); [19]) | Plant response rating, Sowthistle [4, 19] | Plant response rating, Sowthistle [4, 20] | Plant response rating, Sowthistle [4, 22] | Plant response rating, Guineagrass [5, 19] | Plant response rating, Guineagrass [5, 20] | Plant response rating, Guineagrass [5, 21] | Plant response rating, Goosegrass [6, 19] | Plant response rating, Goosegrass [6, 20] | Plant response rating, Foxtail, Green [7, 19] | Plant response rating, Foxtail, Green [7, 20] | Plant response rating, Foxtail, Green [7, 21] | Plant response rating, Johnsongrass [8, 15] | Plant response rating, Johnsongrass [8, 19] | Plant response rating, Johnsongrass [8, 20] | Plant response rating, Johnsongrass [8, 21] | Plant response rating, Dallisgrass [9, 19] | Plant response rating, Crabgrass, Naked [10, 19] | Plant response rating, Crabgrass, Naked [10, 20] | Plant response rating, Barnyardgrass [11, 19] | Plant response rating, Barnyardgrass [11, 20] | Plant response rating, Dayflower, VA [12, 15] | Plant response rating, Dayflower, VA [12, 23] | Plant response rating, Dayflower, VA [12, 18] | Plant response rating, Dayflower, VA [12, 19] | Plant response rating, Dayflower, VA [12, 20] | Plant response rating, Dayflower, VA [12, 21] | Plant response rating, Itchgrass [13, 19] | Plant response rating, Itchgrass [13, 20] | Plant response rating, Itchgrass [13, 21] | Plant response rating, Itchgrass [13, 22] | Plant response rating, Mallow [14, 19] | Plant response rating, Mallow [14, 20]
95: Plant response rating, Dallisgrass [9, 22]
25: Plant response rating, Kochia (kochia (Kochia scoparia); [23]) | Plant response rating, Kochia (kochia (Kochia scoparia); [18]) | Plant response rating, Crabgrass, Naked [10, 22] | Plant response rating, Mallow [14, 15]
10: Plant response rating, Guineagrass [5, 18] | Plant response rating, Crabgrass, Naked [10, 21] | Plant response rating, Itchgrass [13, 15]
35: Plant response rating, Sowthistle [4, 15] | Plant response rating, Foxtail, Green [7, 23] | Plant response rating, Dallisgrass [9, 15] | Plant response rating, Dallisgrass [9, 23] | Plant response rating, Dallisgrass [9, 18] | Plant response rating, Barnyardgrass [11, 15] | Plant response rating, Itchgrass [13, 18]
5: Plant response rating, Bermudagrass [1, 15] | Plant response rating, Bermudagrass [1, 21] | Plant response rating, Bermudagrass [1, 22] | Plant response rating, Guineagrass [5, 15] | Plant response rating, Guineagrass [5, 23] | Plant response rating, Foxtail, Green [7, 22] | Plant response rating, Dallisgrass [9, 20] | Plant response rating, Dallisgrass [9, 21] | Plant response rating, Barnyardgrass [11, 21] | Plant response rating, Dayflower, VA [12, 22] | Plant response rating, Mallow [14, 21]
80: Plant response rating, Surinam Grass [2, 20] | Plant response rating, Groundsel ([3]; 125 g ai/ha, scale 0 to 100 (0 no effect, 100 complete control)) | Plant response rating, Groundsel ([3]; 62 g ai/ha, scale 0 to 100 (0 no effect, 100 complete control)) | Plant response rating, Foxtail, Green [7, 17]
40: Plant response rating, Kochia (kochia (Kochia scoparia); [17]) | Plant response rating, Itchgrass [13, 17]
70: Plant response rating, Sowthistle [4, 18] | Plant response rating, Crabgrass, Naked [10, 17] | Plant response rating, Barnyardgrass [11, 18]
65: Plant response rating, Bermudagrass [1, 17] | Plant response rating, Bermudagrass [1, 18] | Plant response rating, Kochia (kochia (Kochia scoparia); [20]) | Plant response rating, Kochia (kochia (Kochia scoparia); [21]) | Plant response rating, Sowthistle [4, 23] | Plant response rating, Guineagrass [5, 22] | Plant response rating, Goosegrass [6, 18] | Plant response rating, Foxtail, Green [7, 18] | Plant response rating, Crabgrass, Naked [10, 18] | Plant response rating, Barnyardgrass [11, 16]
15: Plant response rating, Itchgrass [13, 23]
60: Plant response rating, Surinam Grass [2, 23] | Plant response rating, Groundsel ([3]; 31 g ai/ha, scale 0 to 100) | Plant response rating, Johnsongrass [8, 17] | Plant response rating, Dallisgrass [9, 17] | Plant response rating, Mallow [14, 17] | Plant response rating, Mallow [14, 18]
98: Plant response rating, Surinam Grass [2, 22]
30: Plant response rating, Guineagrass [5, 17] | Plant response rating, Goosegrass [6, 21] | Plant response rating, Johnsongrass [8, 22] | Plant response rating, Dayflower, VA [12, 17] | Plant response rating, Mallow [14, 23]
50: Plant response rating, Bermudagrass [1, 16] | Plant response rating, Goosegrass [6, 15] | Plant response rating, Goosegrass [6, 23] | Plant response rating, Goosegrass [6, 22] | Plant response rating, Johnsongrass [8, 18] | Plant response rating, Crabgrass, Naked [10, 23]
90: Plant response rating, Surinam Grass [2, 17] | Plant response rating, Surinam Grass [2, 18] | Plant response rating, Kochia (kochia (Kochia scoparia); [22]) | Plant response rating, Sowthistle [4, 17]
20: Plant response rating, Foxtail, Green [7, 15] | Plant response rating, Johnsongrass [8, 23]
75: Plant response rating, Goosegrass [6, 17] | Plant response rating, Barnyardgrass [11, 17] | Plant response rating, Barnyardgrass [11, 22] | Plant response rating, Mallow [14, 22]

Reference: US8952024B2, “Herbicidal pyrimidone derivatives” (E I du Pont de Nemours and Company, priority 2009, dated 2015)
